Results: patent US20240335451A1, “ACRYLAMIDE DERIVATIVES USEFUL AS ANTI-INFLAMMATORY AGENTS” (Sitryx Therapeutics Limited, priority 2021, published 2024)

Columns and labels:
Assay type in all cases: cell-based
[1] = system: IL-1β cytokine output from THP-1s; assay: THP-1 AlphaLISA IL-1β cytokine assay (differentiated THP-1 cells, LPS then nigericin); settings: 30 min pre-incubation, LPS 24 hr, nigericin 1 hour
Protocol: (§1) Measuring Inhibitory Effects on IL-1β and IL-6 Cytokine Output from THP-1s
(§2) The cytokine inhibition profiles of compounds of formula (I) were determined in a differentiated THP-1 cell assay. All assays were performed in RPMI-1640 growth medium (Gibco), supplemented with 10% fetal bovine serum (FBS; Gibco), 1% penicillin-streptomycin and 1% sodium pyruvate unless specified otherwise. The IL-1β and IL-6 cytokine inhibition assays were each run in a background of differentiated THP-1 cells as described below. All reagents described were from Sigma-Aldrich unless specified otherwise. Compounds were prepared as 10 mM DMSO stocks.
(§3) THP-1 cells were expanded as a suspension up to 80% confluence in appropriate growth medium. Cells were harvested, suspended, and treated with an appropriate concentration of phorbol 12-myristate 13-acetate (PMA) over a 72 hr period (37° C./5% CO2).
(§4) Following 72 hrs of THP-1 cell incubation, cellular medium was removed and replaced with fresh growth media containing 1% of FBS. Working concentrations of compounds were prepared separately in 10% FBS treated growth medium and pre-incubated with the cells for 30 minutes (37° C./5% CO2). Following the 30 minute compound pre-incubation, THP-1s were treated with an appropriate concentration of LPS and the THP-1s were subsequently incubated for a 24 hr period (37° C./5% CO2). An appropriate final concentration of Nigericin was then dispensed into the THP-1 plates and incubated for 1 hour (37° C./5% CO2) before THP-1 supernatants were harvested and collected in separate polypropylene 96-well holding plates.
(§5) Reagents from each of the IL-1β and IL-6 commercial kits (Perkin Elmer) were prepared and run according to the manufacturer's instructions. Subsequently, fluorescence signal detection in a microplate reader was measured (EnVision® Multilabel Reader, Perkin Elmer).
(§6) Percentage inhibition was calculated per cytokine by normalizing the sample data to the high and low controls used within each plate (+/−LPS respectively).

[2] = system: NRF2 (nuclear factor erythroid 2-related factor 2); assay: NRF2 activation assay (DiscoverX PathHunter NRF2 translocation kit, U2OS cells); settings: for Emax / EC50: Homo sapiens; for Emax: U2OS; for EC50: U2OS PathHunter cells, 6 hours
[3] = system: IL-6 cytokine output from THP-1s; assay: THP-1 AlphaLISA IL-6 cytokine assay (differentiated THP-1 cells, LPS then nigericin); settings: 30 min pre-incubation, LPS 24 hr, nigericin 1 hour
Protocol: as §1, §2, §3, §4, §5, §6

[4] = +GSH, normalised to dimethyl fumarate high control
[5] = −GSH, normalised to dimethyl fumarate high control
[6] = +GSH (30 minute compound/GSH pre-incubation)

C=C(CC(=O)OCCCCCCCC)C(=O)O [4-octyl itaconate, reference compound]
IC50 [1]: 39.8 µM | NRF2 activation Emax, +GSH [2, 4]: 148% | NRF2 activation Emax, −GSH [2, 5]: 165% | IC50 [3]: 21.1 µM

C=C(Cc1nc(C2(c3ccc(SC(F)(F)F)cc3)CC2)no1)C(=O)Nc1cnccn1 [Example 2, N-(pyrazin-2-yl)-2-((3-(1-(4-((trifluoromethyl)thio)phenyl)cyclopropyl)-1,2,4-oxadiazol-5-yl)methyl)acrylamide]
IC50 ([1]; Homo sapiens): 0.4 µM | Emax [2, 4]: 79% | Emax [2, 5]: 117% | EC50 [2, 6]: 5.2 µM | EC50 ([2]; −GSH): 0.9 µM | IC50 ([3]; Homo sapiens): 0.6 µM

C=C(CC(=O)OC1(c2ccc(C(F)(F)F)cc2)CCC1)C(=O)NC [Example 7, 1-(4-(trifluoromethyl)phenyl)cyclobutyl 3-(methylcarbamoyl)but-3-enoate]
IC50 ([1]; Homo sapiens): 20.5 µM | Emax [2, 4]: 27% | Emax [2, 5]: 119% | EC50 [2, 6]: > 100 µM | EC50 ([2]; −GSH): 12.6 µM | IC50 ([3]; Homo sapiens): 12.1 µM

C=C(CC(=O)OC1(c2ccc(C(F)(F)F)cc2)CCC1)C(N)=O [Example 8, 1-(4-(trifluoromethyl)phenyl)cyclobutyl 3-carbamoylbut-3-enoate]
IC50 ([1]; Homo sapiens): 34.3 µM | Emax [2, 4]: 7% | Emax [2, 5]: 21% | EC50 [2, 6]: > 100 µM | EC50 ([2]; −GSH): > 100 µM | IC50 ([3]; Homo sapiens): 13.9 µM

C=C(CC(=O)O[C@@H](C)c1ccc(C(F)(F)F)cc1)C(N)=O [Example 9, (S)-1-(4-(trifluoromethyl)phenyl)ethyl 3-carbamoylbut-3-enoate]
IC50 ([1]; Homo sapiens): 10 µM | Emax [2, 4]: 26% | Emax [2, 5]: 110% | EC50 [2, 6]: > 100 µM | EC50 ([2]; −GSH): 13.7 µM | IC50 ([3]; Homo sapiens): 4.5 µM

C=C(CC(=O)OC1(c2cc(Cl)cc(Cl)c2)CCC1)C(N)=O [Example 20, 1-(3,5-dichlorophenyl)cyclobutyl 3-carbamoylbut-3-enoate]
IC50 ([1]; Homo sapiens): 13.2 µM | Emax [2, 4]: 28% | Emax [2, 5]: 156% | EC50 [2, 6]: > 100 µM | EC50 ([2]; −GSH): 35.2 µM | IC50 ([3]; Homo sapiens): 8.3 µM

C=C(CC(=O)OC1(c2ccc(C(F)(F)F)c(F)c2)CCC1)C(N)=O [Example 21, 1-(3-fluoro-4-(trifluoromethyl)phenyl)cyclobutyl 3-carbamoylbut-3-enoate]
IC50 ([1]; Homo sapiens): 15.4 µM | IC50 ([3]; Homo sapiens): 6.9 µM

C=C(CC(=O)OC1(c2ccc(C(F)(F)F)c(F)c2)CCC1)C(=O)NC [Example 22, 1-(3-fluoro-4-(trifluoromethyl)phenyl)cyclobutyl 3-(methylcarbamoyl)but-3-enoate]
IC50 ([1]; Homo sapiens): 11 µM | Emax [2, 4]: 48% | Emax [2, 5]: 109% | EC50 [2, 6]: > 100 µM | EC50 ([2]; −GSH): 14.5 µM | IC50 ([3]; Homo sapiens): 9.4 µM

C=C(CC(=O)OC1(c2ccc(C(F)(F)F)cc2)CCC1)C(=O)NC1CCN(C)CC1 [Example 23, 1-(4-(trifluoromethyl)phenyl)cyclobutyl 3-((1-methylpiperidin-4-yl)carbamoyl)but-3-enoate]
IC50 ([1]; Homo sapiens): > 31.6 µM | IC50 ([3]; Homo sapiens): 24.1 µM

C=C(CC(=O)OC1(c2ccc(C(F)(F)F)cc2)CCC1)C(=O)NCCN1CCOCC1 [Example 24, 1-(4-(trifluoromethyl)phenyl)cyclobutyl 3-((2-morpholinoethyl)carbamoyl)but-3-enoate]
IC50 ([1]; Homo sapiens): 8.6 µM | IC50 ([3]; Homo sapiens): 6.8 µM

C=C(CC(=O)OC1(c2ccc(C(F)(F)F)cc2)CCC1)C(=O)NC1CS(=O)(=O)C1 [Example 25, 1-(4-(trifluoromethyl)phenyl)cyclobutyl 3-((1,1-dioxidothietan-3-yl)carbamoyl)but-3-enoate]
IC50 ([1]; Homo sapiens): 19.9 µM | IC50 ([3]; Homo sapiens): 9.5 µM

C=C(CC(=O)OC1(c2ccc(C(F)(F)F)cc2)CCC1)C(=O)NCCS(C)(=O)=O [Example 26, 1-(4-(trifluoromethyl)phenyl)cyclobutyl 3-((2-(methylsulfonyl)ethyl)carbamoyl)but-3-enoate]
IC50 ([1]; Homo sapiens): 18 µM | IC50 ([3]; Homo sapiens): 11.3 µM

C=C(Cc1nc(C2(c3ccc(SC(F)(F)F)cc3)CC2)no1)C(=O)NCC(=O)O [Example 27, (2-((3-(1-(4-((trifluoromethyl)thio)phenyl)cyclopropyl)-1,2,4-oxadiazol-5-yl)methyl)acryloyl)glycine]
IC50 ([1]; Homo sapiens): 9.5 µM | Emax [2, 4]: 20% | Emax [2, 5]: 26% | EC50 [2, 6]: > 100 µM | EC50 ([2]; −GSH): > 100 µM | IC50 ([3]; Homo sapiens): > 100 µM

C=C(Cc1nc(C2(c3ccc(SC(F)(F)F)cc3)CC2)no1)C(=O)NC(C(=O)O)C(F)(F)F (stereo not shown) [Example 28, 3,3,3-trifluoro-2-(2-((3-(1-(4-((trifluoromethyl)thio)phenyl)cyclopropyl)-1,2,4-oxadiazol-5-yl)methyl)acrylamido)propanoic acid]
IC50 ([1]; Homo sapiens): 7.9 µM | Emax [2, 4]: 34% | Emax [2, 5]: 67% | EC50 [2, 6]: > 100 µM | EC50 ([2]; −GSH): 31.8 µM | IC50 ([3]; Homo sapiens): 16.2 µM

C=C(CC(=O)OC1(c2ccc(C(F)(F)F)cc2)CCC1)C(=O)NCC(=O)O [Example 29, (2-methylene-4-oxo-4-(1-(4-(trifluoromethyl)phenyl)cyclobutoxy)butanoyl) glycine]
IC50 ([1]; Homo sapiens): > 100 µM | IC50 ([3]; Homo sapiens): > 31.6 µM

C=C(CC(=O)OC)C(=O)OC [dimethyl itaconate, reference compound]
IC50 ([1]; Homo sapiens): > 100 µM | Emax [2, 5]: 126% | IC50 ([3]; Homo sapiens): > 100 µM
